Laboratory results reported in patent US20120148638A1, “Steroid Solavates” (BREATH LIMITED, priority 2009, published 2012).

Experiments:
[1] = Dry Sympatec PSD analysis (particle size distribution); format: physicochemical; conditions: after isolation
From the text: Particle size or particle diameter as used herein can be suitably determined by laser diffraction based methods, for example as described in ISO Standard 13320-1. Laser diffraction particle sizing apparatus such as the Malvern Mastersizer 2000™ can be used.

[2] = Effect of humidity on prolonged storage: 20% relative humidity for 48 hours; DVS, DSC, TGA, PSD, SEM; format: physicochemical; conditions: for DVS mass plot, change of mass during storage: 20% RH, 48 hours; for Particle Size, cumulative distribution Q3 X10, post-storage sample / Particle Size, cumulative distribution Q3 X50, post-storage sample / Particle Size, cumulative distribution Q3 X90, post-storage sample: dry Sympatec PSD
Method: In order to evaluate the effect of humidity on prolonged storage, processed BDP heptane solvate was subjected to 20% relative humidity (RH) for 48 hours.
The sample recovered after storage was analysed by DSC, TGA, PSD and SEM.
In order to evaluate the effect of humidity on prolonged storage processed BDP hydrate was subjected to 20% relative humidity (RH) for 48 hours.

Row | Compound | Particle Size, cumulative distribution Q3 X10 [1] | Particle Size, cumulative distribution Q3 X50 [1] | Particle Size, cumulative distribution Q3 X90 [1] | Particle size distribution, result in words [1] | Time to steady state of sample mass (DVS) ([2]; 20% RH storage) | DVS mass plot, change of mass during storage [2] | DSC trace of stored sample, thermal behaviour post-humidity treatment ([2]; after 20% RH for 48 hours) | PSD variation of particle size after storage ([2]; after 20% RH for 48 hours) | Particle Size, cumulative distribution Q3 X10, post-storage sample ([2]; after 20% RH for 48 hours) | Particle Size, cumulative distribution Q3 X50, post-storage sample ([2]; after 20% RH for 48 hours) | Particle Size, cumulative distribution Q3 X90, post-storage sample ([2]; after 20% RH for 48 hours) | DVS mass plot, change of mass during storage ([2]; listed as processed BDP heptane) | DSC trace of stored sample, thermal behaviour post-humidity treatment ([2]; after 20% RH for 48 hours, listed as BDP heptane solvate)
1 | CCC(=O)OCC(=O)[C@@]1(OC(=O)CC)[C@@H](C)C[C@H]2[C@@H]3CCC4=CC(=O)C=C[C@]4(C)[C@@]3(Cl)[C@@H](O)C[C@@]21C.O [Comparative Example 2, beclomethasone diproprionate, reference compound] | 1.78 μ | 8.10 μ | 15.10 μ | – | – | – | – | – | – | – | – | – | –
2 | CCC(=O)OCC(=O)[C@@]1(OC(=O)CC)[C@@H](C)C[C@H]2[C@@H]3CCC4=CC(=O)C=C[C@]4(C)[C@@]3(Cl)[C@@H](O)C[C@@]21C.O [Example 3, beclomethasone diproprionate] | 0.51 μ | 1.35 μ | 3.17 μ | well within the inhalation range | about 1500 minutes | initially underwent considerable weight loss due to partial dehydration | no variation in the thermal behavior | no significant variation of particle size | 0.51 μ | 1.37 μ | 2.95 μ | – | –
3 | CCC(=O)OCC(=O)[C@@]1(OC(=O)CC)[C@@H](C)C[C@H]2[C@@H]3CCC4=CC(=O)C=C[C@]4(C)[C@@]3(Cl)[C@@H](O)C[C@@]21C.O [Example 1, beclomethasone diproprionate] | 0.69 μ | 2.41 μ | 4.67 μ | within the inhalation range | – | – | – | – | 0.68 μ | 2.44 μ | 5.29 μ | maintained full stability in terms of change of mass | no variation in the thermal behaviour
4 | CCC(=O)OCC(=O)[C@@]1(OC(=O)CC)[C@@H](C)C[C@H]2[C@@H]3CCC4=CC(=O)C=C[C@]4(C)[C@@]3(Cl)[C@@H](O)C[C@@]21C.O [Comparative Example 1, beclomethasone diproprionate, reference compound] | 0.84 μ | 3.58 μ | 8.76 μ | mostly ˜4 μm particles alongside larger clusters or agglomerates larger than 20 μm | – | – | – | – | – | – | – | – | –
